From patent publication US11116817B2, “Antimicrobial agents and compositions comprising the same” (THE CURATORS OF THE UNIVERSITY OF MISSOURI, priority 2017, dated 2021)
Where two headings read alike, the source gives them in different places. Positions of bridges follow the written chain, without caps; N, C: chain ends. No end group written: not given here.

Tests used:
JAWSII cells = assay: Cell cytotoxicity assay (MTT); assay type: cell-based, mouse; settings: 4, 16, 64, 256 μg/ml for 4, 12, 24, and 48 hour
Method: The Cell Cytotoxicity Assay includes the following procedures. Mouse immature dendritic cell line, JAWSII (ATCC CRL-11904™), was cultured in Alpha minimum essential medium with ribonucleosides, deoxyribonucleosides, 4 mM L-glutamine, 1 mM sodium pyruvate, and 5 ng/ml murine Granulocyte macrophage colony-stimulating factor (GM-CSF) then supplemented with 20% FBS, 100 U/ml penicillin, and 100 μg/ml streptomycin at 37° C. in humidified air with 5% CO2. CCR-2 transfected CHO-K1 cells were cultured in RPMI-1640 supplemented with 10% FBS, 2 mM L-glutamine, 100 units/ml penicillin and streptomycin, and 500 μg/ml G418 at 37° C. in humidified air with 5% CO2. The cytotoxicity of CAMPs (SEQ ID NOs: 1, 2, 3, and 4) to JASWII and CHO-K1 cells was determined using MTT (3-(4,5-dimethylthiazol-2-yl)-2,5-diphenyltetrazolium bromide, Thermo Fisher Scientific) cell proliferation assay. Cells (5×10^3 cells/well) in 96-well microtiter plates were treated with peptides at 64, 128, 256, and 512 μg/ml for 4, 12, 24, and 48 hours at 37° C. After treatment, 20 μl of 12 mM MTT solution was added to each well and the plate was incubated for 4 hours. […] The plates were read using a spectrophotometer at 540 nm. The viability of treated cells was expressed as the percentage of viability relative to the untreated control. […]

CHO-K1 cells = assay: Cell cytotoxicity assay (MTT); assay type: cell-based, hamster; settings: 4, 16, 64, 256 μg/ml for 4, 12, 24, and 48 hour
Method: The Cell Cytotoxicity Assay includes the following procedures. Mouse immature dendritic cell line, JAWSII (ATCC CRL-11904™), was cultured in Alpha minimum essential medium with ribonucleosides, deoxyribonucleosides, 4 mM L-glutamine, 1 mM sodium pyruvate, and 5 ng/ml murine Granulocyte macrophage colony-stimulating factor (GM-CSF) then supplemented with 20% FBS, 100 U/ml penicillin, and 100 μg/ml streptomycin at 37° C. in humidified air with 5% CO2. CCR-2 transfected CHO-K1 cells were cultured in RPMI-1640 supplemented with 10% FBS, 2 mM L-glutamine, 100 units/ml penicillin and streptomycin, and 500 μg/ml G418 at 37° C. in humidified air with 5% CO2. The cytotoxicity of CAMPs (SEQ ID NOs: 1, 2, 3, and 4) to JASWII and CHO-K1 cells was determined using MTT (3-(4,5-dimethylthiazol-2-yl)-2,5-diphenyltetrazolium bromide, Thermo Fisher Scientific) cell proliferation assay. Cells (5×10^3 cells/well) in 96-well microtiter plates were treated with peptides at 64, 128, 256, and 512 μg/ml for 4, 12, 24, and 48 hours at 37° C. After treatment, 20 μl of 12 mM MTT solution was added to each well and the plate was incubated for 4 hours. The medium in each well was replaced with 100 μl of dimethyl sulfoxide (DMSO, Sigma-Aldrich) to dissolve MTT crystals. The plates were read using a spectrophotometer at 540 nm. The viability of treated cells was expressed as the percentage of viability relative to the untreated control. The experiment was performed in triplicate.
(§1) Chicken macrophage cell lines MQ-NCSU and HD11 were maintained in RPMI-1640 media supplemented with 10% fetal bovine serum (FBS), 2% chicken serum, 100 U/ml penicillin and 100 μg/ml streptomycin (Sigma-Aldrich) at 37° C. in humidified air with 5% CO2. CHO-K1 cells were cultured in the same media without 2% chicken serum. For CCR2-transfected CHO-K1 cells, medium was supplemented with 500 μg/ml G418 was added (Sigma-Aldrich). Murine immature dendritic cell line JAWSII (ATCC CRL-11904™) was cultured in Alpha minimum essential medium containing 4 mM L-glutamine, 1 mM sodium pyruvate, 5 ng/ml murine Granulocyte macrophage colony-stimulating factor (GM-CSF), 20% FBS, 100 U/ml penicillin and 100 μg/ml streptomycin at 37° C. in humidified air with 5% CO2. The cell cytotoxicity was determined using the MTT (3-(4,5-dimethylthiazol-2-yl)-2,5-diphenyltetrazolium bromide cell proliferation assay according to the manufacturer's instruction (Thermo Fisher Scientific). Briefly, cells (5×10^3 cells/well) were seeded in 96-well tissue culture plates, incubated overnight and treated with the analogues at concentrations of 4, 16, 64 and 256 μg/ml for 4, 12, 24 and 48 hours at 37° C. After treatment, […] 12 mM MTT solution was added to each well. The plate was incubated for 4 hours and read at 540 nm. Viability was expressed as percentage of viable cells relative to the untreated control. The experiments were performed in triplicate.

E. coli (ATCC 25922) = assay type: cell-based
Method: (§2) The minimum inhibitory concentrations (MIC) of AvBDs (SEQ ID NOs: 5, 6, 7, 8, 9, 10, 11, 12, and 13) were determined under low salt and standard conditions according to the guidelines of the Clinical and Laboratory Standards Institute (CLSI). […] An equal volume […] of bacterial suspension was added to each well of the plate. The final bacterial concentration in the wells was 5×10^5 CFU/ml. […] To complement MIC-1s assays, the minimum bactericidal concentrations (MBC) were evaluated by sub-culturing the contents of the first two clear wells obtained in the MIC-1s assay onto LB agar plates. All assays were conducted in triplicate. The lowest peptide concentration inhibiting about, at least, or more than 99% of bacterial growth was defined as MBC-1s. The analogues were regarded as bactericidal when the MBC was determined to be no more than four times the MIC.

[1] = test system: P. aeruginosa (ATCC 27853); assay type: cell-based
Method: as §2

[2] = test system: S. Typhimurium (ATCC 14028); assay type: cell-based
Method: as §2

S. aureus (ATCC 29213) [3] = assay type: cell-based
Method: as §2

[4] = test system: chicken macrophage cell line HD11; assay: Cell cytotoxicity assay (MTT); assay type: cell-based; settings: 4, 16, 64, 256 μg/ml for 4, 12, 24, and 48 hour
Method: as §1, with “The experiments were performed in triplicate.” left out

[5] = test system: chicken macrophage cell line MQ-NCSU; assay: Cell cytotoxicity assay (MTT); assay type: cell-based; settings: 4, 16, 64, 256 μg/ml for 4, 12, 24, and 48 hour
Method: as §1, with “The experiments were performed in triplicate.” left out

P. aeruginosa = assay type: cell-based
Method: (§3) The minimum inhibitory concentrations (MICs) of CAMPs (SEQ ID NOs: 1, 2, 3, and 4) were determined according to the guidelines of the Clinical and Laboratory Standards Institute (CLSI). The Muller Hinton (MH) II broth used in MIC assay was supplemented with 20-25 mg/L of calcium and 10-12.5 mg/L of magnesium. In brief, peptides were two-fold serially diluted (2 to 256 μg/ml) in a 96-well microtiter plate (Nunc™, Thermo Fisher Scientific) and an equal volume (μl) of bacterial suspension was added to each well of the plate. The final bacterial concentration in the wells was 5×10^5 CFU/ml. […] All assays were conducted in triplicate.

S. aureus (ATCC 29213) [6] = assay type: cell-based; remark: listed apart in the source
Method: as §3

[7] = test system: methicillin-resistant S. pseudintermedius (MRSP); assay type: cell-based
Method: as §3

[8] = test system: Gram-positive bacteria (S. aureus and MRSP strains); assay: MIC assay, Example One, pooled over Gram-positive strains; assay type: cell-based, S. pseudintermedius; settings: mean over the Gram-positive strains of Table 2
Method: as §3
The Hemolytic Assay includes the following procedures. […] The supernatant was transferred to a 96-well flat-bottomed polystyrene plate (Thermo Fisher Scientific), and the amount of hemoglobin released into the supernatant was determined by measuring the absorbance with a spectrophotometer at 540 nm. Hemolytic activity was expressed as the percentage of hemolysis and calculated using the following equation: hemolysis (%)=(As−A0)/(A100−A0)×100, where As is the absorbance of the sample, A100 is the absorbance of completely lysed RBCs in 0.2% Triton X-100, and A0 is the absorbance in the complete absence of hemolysis (PBS treatment). […] Therapeutic index (T.I.) was calculated according to a previously published formula: T.I.=MHC/MICGM. […]

[9] = standard conditions, CLSI guidelines

For “GPHSCNHQRGLCRVGNCNPGYYLAKYCFSPVILCCKPLSPTPTKT (disulfide 5-34, 12-27, 17-35) [AvBD-12/6]”, the “effect on cell viability” value (JAWSII cells) was “did not appear to have any effect on cell viability”, the “effect on cell viability” value (CHO-K1 cells) was “did not appear to have any effect on cell viability” and the MBC-Is (E. coli (ATCC 25922); low salt condition (5 mM NaCl)) was 32 µg/mL. The MIC-Is (E. coli (ATCC 25922); low salt condition (5 mM NaCl)) was 8 µg/mL, the MIC (E. coli (ATCC 25922); [9]) was 256 µg/mL and the MIC-Is ([1]; low salt condition (5 mM NaCl)) was 64 µg/mL. The MIC [1, 9] was >256 µg/mL, the MBC-Is ([2]; low salt condition (5 mM NaCl)) was 64 µg/mL and the MIC-Is ([2]; low salt condition (5 mM NaCl)) was 16 µg/mL. The MIC [2, 9] was >256 µg/mL, the MBC-Is (S. aureus (ATCC 29213) [3]; low salt condition (5 mM NaCl)) was 256 µg/mL and the MIC-Is (S. aureus (ATCC 29213) [3]; low salt condition (5 mM NaCl)) was 256 µg/mL. The MIC (S. aureus (ATCC 29213) [3]; [9]) was 256 µg/mL, the “effect on cell viability” value [4] was “did not appear to have any effect on cell viability” and the “effect on cell viability” value [5] was “did not appear to have any effect on cell viability”.
“SPIHACRYQRGVCIPGPCRWPYYRVGSCGSGLKSCCVRNRWA (disulfide 6-35, 13-28, 18-36) [AvBD-6]” was tested, and the MIC (P. aeruginosa; 24 h) was >256 µg/mL, the “MICAverage G−” value (P. aeruginosa; mean over the Gram-negative (P. aeruginosa) strains of Table 2) was >256 µg/mL and the MIC (S. aureus (ATCC 29213) [6]) was 256 µg/mL. For the same sequence, the MIC ([7]; S. pseudintermedius (13164006)) was >256 µg/mL, the MIC ([7]; S. pseudintermedius (13193006)) was >256 µg/mL and the MIC ([7]; S. pseudintermedius (13207007)) was >256 µg/mL. The MIC ([7]; S. pseudintermedius (13228005)) was >256 µg/mL, the MIC ([7]; S. pseudintermedius (13267017)) was >256 µg/mL and the MIC ([7]; S. pseudintermedius (13269013)) was >256 µg/mL. For the same sequence, the “MICAverage G+” value [8] was ≥256 µg/mL and the MBS-Is ([1]; low salt condition (5 mM NaCl)) was 128 µg/mL.
